Read-outs that look alike come from different tables or passages of the source.
Tests used:
[1] = system: panel of human tumor lines (drug-susceptible cell lines); assay: Antiproliferative assay, methylene blue staining; format: cell-based; settings: 120 h, 5 days incubation
Description: The following cell lines are obtained from the American Type Culture Collection (ATCC, Rockville, Md., USA): human colon carcinomas HCT-15 (CCL 225) and HCT-116 (CCL 247), human lung adenocarcinoma A549 (CCL 185), human large cell carcinoma NCI-H460 (HTB 177), estrogen-independent breast carcinoma MDA-MB-231 ([…]), prostate cancer cell line Du 145 (HTB 81). The human KB-31 (drug-sensitive) and KB-8511 (multidrug-resistant, Pgp170 overexpressing) epidermoid carcinoma cells are obtained from Dr. R. M. Baker, Roswell Park Memorial Institute (Buffalo, N.Y., USA) and have been previously described (Akiyam S, et al. Somatic Cell Molec Genetics 1985;11:117-126 and Fojo A, et al., Cancer Res. […];45:3002-3007). The human metastatic prostate carcinoma PC-3M is obtained from Dr. I. J. Fidler (MD Anderson Cancer Center, Houston, Tex., USA). The estrogen-dependent human breast carcinoma cell line MCF-7/ADR (multidrug resistant) is a subline of the MCF-7 cell line (ATCC HTB 22) and is obtained from Dr. D. Fabbro (Novartis Pharma AG, Basel, Switzerland) and has been previously described (Blobe G C, et al. J. Biol. Chem. 1993; 268:658-664).
For the antiproliferative assays, cells are seeded at 1.5×10^3/well into 96-well microtiter plates and incubated overnight. Compounds are added in serial dilutions on day 1. The plates are than incubated for additional 5 days. This allowed the control cultures to undergo at least 3 cell divisions. After incubation the cells are fixed with 3.3% v/v glutaraldehyde, washed with water and stained with 0.05% w/v methylene blue. After washing, the dye is eluted with 3% v/v HCl and the optical density measured at 665 nm with a SpectraMax 340 (Bucherer, Basel, Switzerland). IC50 values are determined by a computerized system (SoftPro, Bucherer, Basel, Switzerland) using the formula (OD test—OD start)/(OD control—OD start)×100. IC50 is defined as the drug concentration which leads to 50% of cells per well compared to control cultures (100%) at the end of the incubation period.

[2] = Toxicity in non-tumor bearing naive nude mice (body weight); format: in vivo; settings: for body weight change: naive mice
Description: To assess toxicity of discodernolide on non-tumor bearing animals, four groups of 8 naive nude mice are dosed with the compound, iv, once (5 mg/kg, 7.5 mg/kg, 10 mg/kg, or 15 mg/kg). The control group is dosed with the vehicle alone (16.7% Cremophor EL, 8.3% ethanol and 75% D5W). Body weights are recorded once weekly.

A549 cells = assay: Antiproliferative assay (MTS); format: cell-based, human; settings: 72 h exposure, two independent experiments, read-out: IC50 cell proliferation
Description: A549, a human non-small cell lung carcinoma and MDA-MB-435, a human breast carcinoma, used in this study are obtained from the American Type Culture Collection (ATCC, Rockville, Md., USA). MDA-MB-435 cells are maintained in MEM containing 10% FBS, 1% sodium pyruvate, 1% MEM non-essential amino acids, and 15 mM HEPES (pH=7.4). A549 cells are maintained in RPMI 1640 containing 10% FBS. 1A9, a single-cell clone of the human ovarian carcinoma cell line A2780 and PTX22, the paclitaxel-resistant subline, used in this stdy are obtained from M. Wartman (Novartis Pharmauticals). 1A9 cells and PTX22 cells are maintained in RPMI 1640 supplemented with 10% FBS. PTX22 maintenance media also contained 15 ng/mL paclitaxel and 5 μg/mL verapamil. Drug is removed from the media for 5-7 days before use in an experiment. All maintenance media contained 100 units/mL penicillin and 100 μg/mL streptomycin.
Cell lines are trypsinized and counted using a Coulter counter. Cells were plated in 96 well plates (190 μL/well) at the following densities: 1,000 cells/well for A549 and 3,000 cells/well for MDA-MB-435. The number of cells plated results in cell densities of 75-90% confluence by the time of harvest. Plates are seeded on day 0. On day 1 test compounds are added to triplicate wells in a final volume of 10 μL media. Initial cell density for each cell line is measured on day 1 by adding 10 μL MTS mixture (see below), incubating for 4 h and recording absorbance at 490 nm (A490). Two or three days after test compound addition, 10 μL/well of MTS mixture is added to the test plates and A490 was read 4 h later. A490 values for wells containing cells are corrected for media absorbance, then normalized to initial density readings to determine percent net growth. Percent net growth is calculated as (A490+drug−A490 initial)/(A490—drug—A490 initial). Graphs of percent net growth as a function of compound concentration are used to calculate concentrations resulting in 50% growth inhibition (IC50). MTS mixture is prepared fresh on day of addition to cell plates at a ratio of 10 μL of a 0.92 mg/mL solution of phenazine methosulfate (PMS) to 190 μL of a 2 mg/mL solution of MTS (3-(4,5-dimethylthiazol-2-yl)-5-(3-carboxymethoxyphenyl)-2-(4-sulfophenyl)-2H-tetrazolium, inner salt). PMS and MTS solutions are prepared in buffered saline containing 0.2 g/L KCl, 8.0 g/L NaCl, 0.2 g/L KH2PO4, 1.15 g/L Na2HPO4, 133 mg/L CaCl2.2H2O, 100 mg/L MgCl2.6H2O, (pH=7.35) and stored as foil-wrapped aliquots at −20° C. Test compounds are prepared as stock solutions in DMSO. Test compound dilutions are made in 2% DMSO/cell maintenance media and diluted into assay plates to give 0.1% DMSO final in all wells.

1A9PTX22 cell line = settings: cited from earlier work

In the case of C=C/C=C\[C@H](C)[C@H](OC(N)=O)[C@@H](C)[C@H](O)[C@@H](C)C/C(C)=C\[C@H](C)[C@@H](O)[C@@H](C)/C=C\[C@@H](O)C[C@@H]1OC(=O)[C@H](C)[C@@H](O)[C@H]1C [discodermolide, (+)-Discodermolide], the IC50 [1] is reported as 2 to 24 nM, the body weight lost ([2]; naive athymic nude mice, single injections, one week after dosing) is reported as “no more than 4%” and the body weight change ([2]; single iv 5 mg/kg, one week after dosing) is reported as “+8.7%”. The body weight change ([2]; single iv 5 mg/kg, three weeks after dosing) was “+9.4%”, the body weight change ([2]; single iv 5 mg/kg, two weeks after dosing) was “+9.4%” and the body weight change ([2]; single iv 7.5 mg/kg, one week after dosing) was “+1.2%”. For the same molecule, the body weight change ([2]; single iv 7.5 mg/kg, three weeks after dosing) was “+7.7%”, the body weight change ([2]; single iv 7.5 mg/kg, two weeks after dosing) was “+3.2%” and the body weight change ([2]; single iv 10 mg/kg, one week after dosing) was −1.2%. For the same molecule, the body weight change ([2]; single iv 10 mg/kg, three weeks after dosing) was “+5.6%”, the body weight change ([2]; single iv 10 mg/kg, two weeks after dosing) was “+1.2%” and the body weight change ([2]; single iv 15 mg/kg, one week after dosing) was −4.1%. For the same molecule, the body weight change ([2]; single iv 15 mg/kg, three weeks after dosing) was “+5.90%”, the body weight change ([2]; single iv 15 mg/kg, two weeks after dosing) was −0.4% and the IC50 (A549 cells) was 60 nM. For the same molecule, the IC50 (A549 cells; Homo sapiens, A549, 72 h) was 45 nM.

In the case of CC(=O)O[C@H]1C(=O)[C@@]2(C)[C@H]([C@H](OC(=O)c3ccccc3)[C@]3(O)C[C@H](OC(=O)[C@H](O)[C@@H](NC(=O)c4ccccc4)c4ccccc4)C(C)=C1C3(C)C)[C@]1(OC(C)=O)CO[C@@H]1C[C@@H]2O [paclitaxel, reference compound], the “fold less sensitive than 1A9 (reported)” value (1A9PTX22 cell line; PTX-22 subline) is listed as 20-30 fold and the “fold resistance of 1A9PTX22 versus parental 1A9” value (1A9PTX22 cell line; in vitro, Giannakakou et al. 1997) is listed as 24 fold.

— patent publication US6774143B1, “Method for treating cells resistant to antineoplastic agents” (Novartis AG, priority 2003, dated 2004)
